# From patent US20140004243A1, “SALTY TASTE ENHANCER” (AJINOMOTO CO., INC., priority 2011, published 2014)
# Target: T1, Human ENaC δ, β and γ subunit (Homo sapiens, UniProt P51168+P51170+P51172)
# T1 construct: expressed in transfected cells; host or cells: Xenopus laevis (African clawed frog) oocytes injected with cRNA
# T1 sequence (P51172 1-802): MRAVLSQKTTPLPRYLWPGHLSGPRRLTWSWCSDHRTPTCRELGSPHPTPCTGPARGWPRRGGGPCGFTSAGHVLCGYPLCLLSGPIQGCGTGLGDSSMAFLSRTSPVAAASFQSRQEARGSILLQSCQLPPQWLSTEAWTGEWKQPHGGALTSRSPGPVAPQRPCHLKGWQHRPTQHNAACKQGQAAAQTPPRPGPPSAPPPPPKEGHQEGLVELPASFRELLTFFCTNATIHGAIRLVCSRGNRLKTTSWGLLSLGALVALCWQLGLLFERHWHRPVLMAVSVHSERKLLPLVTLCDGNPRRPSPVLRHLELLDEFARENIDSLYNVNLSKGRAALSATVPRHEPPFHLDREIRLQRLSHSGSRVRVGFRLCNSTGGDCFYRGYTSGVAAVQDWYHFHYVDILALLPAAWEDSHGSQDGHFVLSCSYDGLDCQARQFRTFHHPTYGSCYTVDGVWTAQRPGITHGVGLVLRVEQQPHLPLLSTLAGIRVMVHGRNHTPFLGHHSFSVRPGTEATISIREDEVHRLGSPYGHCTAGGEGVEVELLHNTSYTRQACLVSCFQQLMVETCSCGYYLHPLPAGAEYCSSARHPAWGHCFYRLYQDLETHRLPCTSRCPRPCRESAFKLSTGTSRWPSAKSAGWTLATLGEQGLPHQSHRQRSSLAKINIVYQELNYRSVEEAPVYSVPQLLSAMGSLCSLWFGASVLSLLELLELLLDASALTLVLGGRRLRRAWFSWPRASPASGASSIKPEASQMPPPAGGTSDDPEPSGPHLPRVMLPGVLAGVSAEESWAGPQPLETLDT
# T1 sequence (P51168 1-640): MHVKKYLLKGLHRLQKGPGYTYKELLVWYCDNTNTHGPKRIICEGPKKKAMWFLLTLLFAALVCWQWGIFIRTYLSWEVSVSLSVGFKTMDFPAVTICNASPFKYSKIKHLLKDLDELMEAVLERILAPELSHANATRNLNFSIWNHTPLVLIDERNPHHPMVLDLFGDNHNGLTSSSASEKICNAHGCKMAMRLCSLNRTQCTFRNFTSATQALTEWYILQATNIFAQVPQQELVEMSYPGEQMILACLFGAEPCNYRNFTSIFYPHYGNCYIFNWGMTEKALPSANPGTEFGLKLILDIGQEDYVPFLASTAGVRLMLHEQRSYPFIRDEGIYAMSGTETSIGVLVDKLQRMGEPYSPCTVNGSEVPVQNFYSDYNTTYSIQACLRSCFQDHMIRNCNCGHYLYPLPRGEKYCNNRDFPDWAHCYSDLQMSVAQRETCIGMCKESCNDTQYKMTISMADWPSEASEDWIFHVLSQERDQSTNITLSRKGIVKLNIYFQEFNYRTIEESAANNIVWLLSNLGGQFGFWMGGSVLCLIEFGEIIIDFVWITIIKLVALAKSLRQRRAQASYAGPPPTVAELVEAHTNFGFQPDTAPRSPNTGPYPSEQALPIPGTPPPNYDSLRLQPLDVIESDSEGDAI
# T1 sequence (P51170 1-649): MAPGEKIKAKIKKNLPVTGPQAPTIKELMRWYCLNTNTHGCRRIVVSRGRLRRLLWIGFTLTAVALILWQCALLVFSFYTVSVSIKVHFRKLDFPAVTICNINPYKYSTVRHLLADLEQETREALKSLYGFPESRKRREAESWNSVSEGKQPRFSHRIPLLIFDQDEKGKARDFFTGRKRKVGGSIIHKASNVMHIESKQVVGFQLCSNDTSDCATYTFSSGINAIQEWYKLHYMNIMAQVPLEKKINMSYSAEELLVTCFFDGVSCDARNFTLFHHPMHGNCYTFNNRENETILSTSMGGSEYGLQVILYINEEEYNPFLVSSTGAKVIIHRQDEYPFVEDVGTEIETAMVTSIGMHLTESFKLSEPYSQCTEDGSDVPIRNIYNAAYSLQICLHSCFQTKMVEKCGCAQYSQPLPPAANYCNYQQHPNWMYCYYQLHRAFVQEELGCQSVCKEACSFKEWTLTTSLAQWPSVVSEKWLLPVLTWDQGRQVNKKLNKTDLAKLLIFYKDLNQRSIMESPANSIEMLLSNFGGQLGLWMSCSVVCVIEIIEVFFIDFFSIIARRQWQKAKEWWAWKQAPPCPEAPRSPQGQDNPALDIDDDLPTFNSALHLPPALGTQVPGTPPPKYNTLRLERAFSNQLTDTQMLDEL
# Assay: Measurement of ENaC activation potency (MED) in ENaC-expressing oocyte, Two Electrode Voltage Clamp
# Assay type: cell-based
# Conditions: minimum effective dose at which current started to increase; ENaC-expressing African clawed frog oocyte; smaller MED = higher ENaC activation potency
# Method: ENaC activation current value, namely, the inward current in ENaC-expressing oocyte was measured as follows.
# According to the method described in Motonao Nakamura, Takao Shimizu: Experiment of African clawed frog oocyte, Experimental Medicine Vol. 11, No. 3, 224-232 (1993), oocyte was collected from African clawed frog, […], and the current value was measured by a Two Electrode Voltage Clamp technique. In the present invention, ND96 (96 mM NaCl, 2 mM KCl, 1 mM MgCl2, 5 mM Hepes, 1.8 mM CaCl2, pH 7.6) was used instead of MBS buffer in the above-mentioned document. Injector NANOLITER 2000 manufactured by World Precision Instruments was used for microinjection, OpusXpress 6000A manufactured by Molecular Devices was used for current value measurement by a Two Electrode Voltage Clamp technique, and Clampfit 10.2 software manufactured by Molecular Devices was used for data analysis.
# Human ENaC δ, β and γ subunit genes shown by SEQ ID NOs: 1, 2 and 3, respectively, in the Sequence Listing were each cloned into a plasmid vector, and used as a template DNA for cRNA synthesis. cRNA was synthesized using MEGAscript kit manufactured by Ambion and according to the method of the manual of the manufacturer.
# A mixture of the same amount of ENaC […] cRNA (0.4 to 0.8 μg/μL), and β and γ subunits cRNA (0.4 μg/μL) was injected into the oocyte of African clawed frog at […] per oocyte, and the oocyte was cultured for 16 hr-72 hr. Thereafter, the oocyte was set on a measuring apparatus OpusXpress 6000A, the electrodes were inserted into the oocyte, the voltage was clamped at a level lower by −30 mV than the resting membrane potential by a Two Electrode Voltage Clamp technique, and the current value was measured.
# To measure the ENaC activation potency, oocyte was stimulated with each test compound, and the minimum effective dose (hereinafter to be abbreviated as MED) of the compound at the time point when the electric current started to increase was measured. In this case, whichever smaller value of the minimum effective dose of the stimulation compound that increased the current value by not less than 10%, and the minimum effective concentration of the compound that increased, by not less than 25%, the electric current increase value due to the stimulation by 5 μM capsazepine (CAS NO.: 138977-28-3), as compared to the current value before addition of the compound and without stimulation, was taken as MED. A smaller MED means higher ENaC activation potency.
# Each test compound was directly dissolved in ND96, or first dissolved in dimethyl sulfoxide (DMSO) to 100 mM, and then prepared by diluting the solution with ND96 to a concentration used for the evaluation. The concentration of the test compound in ND96 was prepared to various concentrations within the range of 0.1 nM to 300 μm.
# ND96 as a perfusion fluid was flown at a rate of 0.5 mL/min through the measuring apparatus OpusXpress 6000A on which ENaC-expressing oocyte was set, the perfusion fluid was temporarily stopped every 3 minutes to add a test compound solution (0.25 mL) dissolved in ND96 at a rate of 0.5 mL/min. In this way, the test compound was contacted with ENaC-expressing oocyte, and whether ENaC is activated by the compound was examined by measuring the current value. After addition of the test compound, feeding of the perfusion fluid was resumed to wash away the compound to be ready for the next addition of the compound.
# The compound was added successively from a low concentration to a high concentration to stimulate ENaC-expressing oocyte. The concentrations actually added was, for example, 1 nM, 3 nM, 10 nM, 30 nM, 100 nM, 300 nM; 1 μM, 3 μM, 10 μm, 30 μm, 100 μm, 300 μm; 1.2 μM, 6 μM, 30 μm, 150 μm of one test compound. The compound was added from low concentrations to high concentrations at 3 min intervals. […]
row,SMILES,MED [µM]
1,COc1ccc([C@@H](C)NC(=S)NCCc2ccccc2O)cc1OC [Example 100],1
2,Oc1ccc(CNC(=S)Nc2ccccc2)cc1O [Example 46],3
3,COC[C@@H](Cc1ccccc1)NC(=S)NCc1ccccc1 [Example 84],10
4,S=C(NCCc1ccccc1)NCCc1c[nH]c2ccccc12 [Example 7],5
5,C[C@H](NC(=S)N[C@H](C)c1ccccc1)c1ccccc1 [Example 24],3.3
6,Oc1ccccc1CCNC(=S)NCc1ccccc1 [Example 62],1.1
7,S=C(NCc1ccccc1)N1CCc2ccccc2C1 [Example 27],10
8,Oc1cc(O)cc(CNC(=S)NCCc2ccccc2)c1 [Example 68],3
9,S=C(NCCc1ccccc1)NCCc1ccccc1 [Example 13],10
10,O=C(O)c1ccc(CNC(=S)NCCc2ccccc2)cc1 [Example 23],10
11,"S=C(CCCc1ccccc1)NCc1ccccc1 [Example 80, N-benzyl-4-phenylbutanethioamide]",10
12,S=C(NCCc1ccccc1)NCc1ccc2c(c1)OCO2 [Example 26],3.3
13,S=C(NCCc1ccccc1)N(Cc1ccccc1)Cc1ccccc1 [Example 22],30
14,C[C@@H](NC(=S)N[C@@H](Cc1ccc(O)cc1)C(=O)O)c1cccc(O)c1 [Example 110],0.3
15,O=C(O)c1ccccc1NC(=S)Nc1ccccc1 [Example 39],1
16,C[C@@H](NC(=S)N/N=C/c1c(O)cccc1O)c1ccccc1 [Example 94],3 to 10
17,S=C(NCCc1ccccc1)NCc1ccccc1 [Example 8],1
18,S=C(NCCc1ccccc1)N1Cc2ccccc2C1 [Example 55],30
19,C[C@@H](NC(=S)NN)c1ccccc1 [Example 36],30
20,C[C@@H](NC(=S)N/N=C/c1ccccc1O)c1ccccc1 [Example 35],3
21,Oc1cccc(CCNC(=S)NCc2ccccc2)c1 [Example 63],3.3

row,SMILES,MED [µM]
1,S=C(NCCc1ccccc1Cl)NCc1ccccc1 [Example 73],3 to 10
2,COC(CNC(=S)NCc1ccccc1)c1ccccc1 (stereo not drawn) [Example 77],1
3,"Oc1ccc(CNC(=S)NCCc2ccccc2)cc1O [Example 40, 1-(3,4-dihydroxybenzyl)-3-(2-phenylethyl)thiourea]",1
4,C[C@@H](NC(=S)Nc1ccccc1C(=O)O)c1cccc(O)c1 [Example 118],0.1
5,Oc1ccccc1CCNC(=S)N[C@@H]1CCc2ccccc21 [Example 88],0.6 to 1
6,Oc1ccc(CNC(=S)NCc2ccccc2)cc1O [Example 45],3
7,C[C@@H](NC(=S)NNCc1c(O)cccc1O)c1ccccc1 [Example 95],3 to 10
8,COc1cccc(OC)c1NC(=S)NCCc1c[nH]c2ccc(O)cc12 [Example 126],10
9,S=C(NCCc1ccccc1)NCc1ccco1 [Example 21],1
10,S=C(NCCc1c[nH]c2ccccc12)Nc1ccccc1 [Example 34],10
11,COc1cc2c(cc1OC)CN(C(=S)NCCc1ccccc1)CC2 [Example 4],30
12,COc1ccc(CCNC(=S)NCc2ccccc2)cc1 [Example 16],3
13,S=C(NCCc1ccccc1)NCC12CC3CC(CC(C3)C1)C2 [Example 32],10
14,Cc1ccc(O)c(C(O)CNC(=S)N[C@H](C)c2cccc(O)c2)c1 (stereo partly drawn) [Example 113],0.3
15,S=C(NCc1ccccc1)NCC(c1ccccc1)c1ccccc1 [Example 59],10
16,"COC(=O)c1ccccc1/C=N/NC(=S)N[C@H](C)c1ccccc1 [Example 96, methyl 2-{(E)-[4-((R)-1-phenylethyl)thiosemicarbazono]methyl}benzoate]",30
17,O[C@H](CNC(=S)NCc1ccccc1)c1ccccc1 [Example 72],1
18,Oc1cc2c(cc1O)CN(C(=S)NCCc1ccc(Cl)cc1)CC2 [Example 2],3
19,FC(F)(F)c1ccc(CNC(=S)NCCc2ccccc2)cc1 [Example 30],30
20,C[C@@H](NC(=S)N[C@H](Cc1ccccc1)C(=O)O)c1cccc(O)c1 [Example 107],0.3
21,CN(CCc1ccccc1)C(=S)NCc1ccccc1 [Example 66],3 to 10
